Experimental data from patent US7384656B2, “Anti-allergy composition and related method” (Access Business Group International LLC, priority 2004, dated 2008).

What was measured:
[1] = tested on: allergic response to allergen extracts (cat dander, pollen and grass); test: Clinical study with Nasal Allergen Challenge (NAC): symptom scores and sneeze counts; format: in vivo, human
Method: To test the efficacy of an embodiment of the composition in inhibiting an allergic response, a comparative clinical study was conducted on human subjects. This clinical study consisted of testing twenty subjects for positive allergic reaction to allergen extracts (cat dander, pollen and grass). The subjects were then randomized to receive: a control, specifically a placebo; loratadine, a known anti-histamine drug, sold under the trademark CLARITIN, and a composition of the above embodiments including Picao preto, Acerola, and Cinnamon (referred to herein as the Blend). Each of these were administered to the subjects in three doses a day for two days before receiving a Nasal Allergen Challenge (NAC), which is a commonly used test for predicting real-life efficacy of allergen treatments. Specifically, Claritin was administered in an amount of 10 mg per dose; the placebo in an amount of 450 mg per dose; and the Blend in an amount of 450 mg per dose, that dose for the Blend including 150 mg Picao preto; 150 mg Acerola and 150 mg Cinnamon. Other suitable Cinnamon levels are in the range of about 25 mg to about 650 mg; suitable Picao preto levels are in the range of 25 to about 650 mg; and suitable Acerola levels are in the range of about 25 mg to about 650 mg.
(§1) During the NAC, subjects had […] increasing doses of allergen (0 (water was administered), 50, 250, 1250, and 6250 Bioequivalent Allergy Units/ml (BAU/ml)) squirted up their noses over a period of two hours. Bioequivalent Allergy Units were calculated using ID50EAL testing (Intradermal Dilution for 50 mm Sum of Erythema Determines Bioequivalent Allergy Units) (Turkeltaub PC, Biological standardization of allergenic extracts. Allergol Immunopathol (Madr). 1989, 17:53-65.
To analyze the allergy treatment effects of the Blend, Claritin and the placebo, a composite measurement of blockage, secretion and sneezing was determined. The smallest clinically meaningful difference in allergy treatment effects has been determined to be about a 0.5 score step on an 0 to 9 scale of the composite measurement of blockage, secretion and sneezing. Akerlund, A. et al, Clinical Trial Design, Nasal Allergen Challenge Models and Considerations of relevance to Pediatrics, Nasal Polyposis and Different Classes of Medication. J. Allergy. Clin. Imm., 115 (3.2): S460-482 (March 2005). Measurements used in connection determining blockage, secretion and sneezing were the Nasal Symptoms Score, the Pruritus-Rhinorrhea-Conjunctivitis Score, and sneeze counting, respectively.
The allergic symptoms of the twenty subjects were measured ten minutes after each exposure to the with an eleven-point Nasal Symptom Scale, (on a scale of 1-11, 11 being the most symptoms observed), which is common to the NAC, to establish the Nasal Symptom Score. The subjects also underwent the nasal lavage to collect supernatants which were assayed for allergic reaction and inflammatory mediators: prostaglandin D2; Leukotriene […]; and tryptase.
After the NAC, subjects were released, but continued rating their symptoms every two hours for eight hours using the Nasal Symptom Scale, as well as a 15-point Pruritus-Rhinorrhea-Conjunctivitis Scale, which is a common scale that is intended to be more sensitive than the Nasal Symptom Scale. On this scale, Pruritus, Rhinorrhea, and Conjunctivitis were each rated as none, mild, mild to moderate, moderate, moderate to severe, or severe, scored 0, 1, 2, 3, 4, or 5 points respectively, with a maximum total of 15 points for all three together. In addition, during the eight hour period, the subjects counted and recorded the number of their sneezes within each two-hour period to establish a sneeze count. […]

Prostaglandin D2 = test: Allergic mediators in nasal fluid (nasal lavage) before and after NAC; format: in vivo, human; details: before versus after administration of allergens
Method: To test the efficacy of an embodiment of the composition in inhibiting an allergic response, a comparative clinical study was conducted on human subjects. This clinical study consisted of testing twenty subjects for positive allergic reaction to allergen extracts (cat dander, pollen and grass). The subjects were then randomized to receive: a control, specifically a placebo; loratadine, a known anti-histamine drug, sold under the trademark CLARITIN, and a composition of the above embodiments including Picao preto, Acerola, and Cinnamon (referred to herein as the Blend). […]
as §1
The allergic symptoms of the twenty subjects were measured ten minutes after each exposure to the with an eleven-point Nasal Symptom Scale, (on a scale of 1-11, 11 being the most symptoms observed), which is common to the NAC, to establish the Nasal Symptom Score. […]

[2] = tested on: LTC4 release, RBL-2H3 cells; test: LTC4 release from IgE-sensitized, DNP-BSA stimulated RBL-2H3 cells (ELISA); format: cell-based; details: 0.1 μg/ml
Method: (§2) The methodology used to obtain the results of FIG. 9 will now be described. First, RBL-2H3 cells, available from ATCC (American Type Culture Collection) of Manassas, Va., were plated in 24 well plates at 5×10^4/well. Following adherence, the cells were exposed to the ingredients or combination of ingredients noted in FIG. 9, also referred to as samples. The samples were used at the concentrations noted in Table VI. Stock solutions of all samples were prepared in a solution of DMSO, ethanol, and water present in a ratio of 5:3:2 at 100 mg/ml. Each sample was then diluted in media to the final concentration. The cells were then incubated overnight with the samples. The following day a mouse anti-dinitrophenyl (DNP) IgE antibody, available from Sigma of St. Louis, Mo., was added to the cells at a final concentration of 1 ng/ml. The cells were incubated for 1.5 hr at 37° C. to allow binding of the IgE molecule to the cellular IgE receptor via the constant region of the antibody. Following this incubation period, the cells were washed twice. A solution containing DNP conjugated to BSA (DNP-BSA), available from Calbiochem of San Diego, Calif., was added to the cells at 0.5 ng/ml. […] Next, the measured OD450 data from the ELISA was inputted into a calibration graph to determine the amount by which histamine was reduced relative to an untreated control sample. […]

[3] = tested on: PGD2 release, RBL-2H3 cells; test: PGD2 release from IgE-sensitized, DNP-BSA stimulated RBL-2H3 cells (ELISA); format: cell-based; details: 1 μg/ml
Method: as §2

[4] = tested on: histamine release, RBL-2H3 cells; test: Histamine release from IgE-sensitized, DNP-BSA stimulated RBL-2H3 cells (ELISA); format: cell-based; details: 10 ng/ml
Method: The methodology used to obtain the results of FIG. 9 will now be described. First, RBL-2H3 cells, available from ATCC (American Type Culture Collection) of Manassas, Va., were plated in 24 well plates at 5×10^4/well. Following adherence, the cells were exposed to the ingredients or combination of ingredients noted in FIG. 9, also referred to as samples. The samples were used at the concentrations noted in Table VI. Stock solutions of all samples were prepared in a solution of DMSO, ethanol, and water present in a ratio of 5:3:2 at 100 mg/ml. Each sample was then diluted in media to the final concentration. The cells were then incubated overnight with the samples. The following day a mouse anti-dinitrophenyl (DNP) IgE antibody, available from Sigma of St. Louis, Mo., was added to the cells at a final concentration of 1 ng/ml. The cells were incubated for 1.5 hr at 37° C. to allow binding of the IgE molecule to the cellular IgE receptor via the constant region of the antibody. Following this incubation period, the cells were washed twice. A solution containing DNP conjugated to BSA (DNP-BSA), available from Calbiochem of San Diego, Calif., was added to the cells at 0.5 ng/ml. The cells were incubated an additional 1 hr at 37° C. The supernatants were assayed for the presence of histamine, PGD2 and/or LTC4 using ELISA kits commercially available from Cayman Chemical of Ann Arbor, Mich. according to the manufacturer's specifications. Next, the measured OD450 data from the ELISA was inputted into a calibration graph to determine the amount by which histamine was reduced relative to an untreated control sample. An example of a histamine calibration graph is illustrated in FIG. 10. Suffice it to say that calibration graphs for PGD2 and LTC4 are similar. The calibration graph in FIG. 10 was generated by measuring the OD450 of multiple, known concentrations of purified histamine. As shown in the graph, the X-axis indicates the concentrations of the histamine in nanomolar; and the Y-axis indicates the OD450 derived from each of the concentrations. The line 120 connects the data points, while line 130 is a trend line corresponding to the equation in this particular embodiment of: Y=−0.0025X^2+0.2915X+2.0775 Equation 2 With the histamine calibration graph, the amount of histamine for each sample was determined, and the subsequent data was input into Table VI and FIG. 9 for comparative analysis.

[5] = tested on: IgE receptor (FcεRIα) on RBL-2H3 cells; test: IgE receptor expression on RBL-2H3 cells (anti-FcεRIα cell ELISA normalized to MTT viability); format: cell-based
Method: The methodology used to obtain the results of FIG. 1 will now be described. First, RBL-2H3 cells, available from ATCC (American Type Culture Collection) of Manassas, Va., were plated in 96 well plates at 3×10^4/well. Following adherence to the wells, the cells were exposed to the sample combinations of ingredients listed in Table I, each combination referred to as a “sample.” Stock solutions of all samples were prepared in a solution of DMSO, ethanol, and water present in a ratio of 5:3:2 at 100 mg/ml. […] Duplicate plates of each sample were prepared so that viability could be determined multiple times for each sample, with the results of the multiple samples averaged following treatment of the cells. The plates were incubated an additional 48 hours. To measure IgE-receptor expression, the cells were fixed for 2 hours with 1% gluteraldehyde. Following fixation, the cells were washed twice with PBS-Tween 20 (0.01%), available from Aldrich of Milwaukee, Wis. Protein binding sites were blocked for 2 hours with 2% non-fat dry milk in PBS (Phosphate Buffer Saline buffered at pH 7.3). The cells were washed twice. The primary antibody, Rabbit anti-FcεRIα, available from Upstate Group, Inc., Lake Placid, N.Y., was added to the wells and diluted 1:4000 with 0.2% BSA (Bovine Serum Albumin). Following a 2 hour incubation, the wells were washed 5× with PBS-Tween 20 (0.01%) solutions. The secondary antibody, Goat anti-rabbit IgG-peroxidase, available from Sigma-Aldrich of St. Louis, Mo., was added to the wells at 1:20000 with 0.2% BSA. Following a 1 hour incubation the wells were washed five times. 100 μliters (microliters) of TMB (3,3′,5,5±Tetramethyl benzidine dihydrochloride) Substrate, available from Chemicon International of Temecula, Calif., was added to the wells. Subsequent color development was stopped by the addition of a sufficient amount, H2SO4 (for example, 100 μliters at 1 Normal). For each of the multiple samples of the combination, the OD450 (Optical Density measured at a wavelength of 450 nanometers) was read on a plate reader. Continuing with a description of the methodology to obtain the data in FIG. 1, the viability of the cells was next determined by incubating the cells in the second plate with MTT in a concentration of 1 mg/ml for 3 hours. The reduced MTT was extracted with 70% isopropanol and the OD540 (Optical Density at a wavelength of 540 nanometers) was read for each of the multiple samples.

[6] = tested on: IgE secretion by U266 human myeloma cells; test: IgE secretion by U266 human myeloma cells (IgE ELISA of supernatants); format: cell-based; details: varying concentrations
Method: The methodology used to obtain the results of FIG. 3 will now be described. First, U266 human myeloma cells, available from ATCC of Manassas, Va. were plated in 96 well plates at 4×10^4/well. The cells were exposed to the sample combinations of ingredients listed in Table I, each combination referred to as a “sample.” Stock solutions of all samples were prepared in a solution of DMSO, ethanol, and water present in a ratio of 5:3:2 at 100 mg/ml. Each sample was then diluted to 100 μg/ml in media. Duplicate plates of each sample were prepared so that viability could be determined multiple times for each sample, with the results of the multiple samples averaged following treatment of the cells. The plates were incubated an additional 48 hours. Thereafter, the amount of IgE in the supernatants was measured using a conventional quantitative IgE ELISA kit available from Bethyl Laboratories of Montgomery, Tex. Next, the measured OD450 data from the IgE ELISA was inputted into a calibration graph, illustrated in FIG. 4, to determine the concentration of IgE in ng/ml in each supernatant. This calibration graph was generated by measuring the OD450 of multiple, known concentrations (in nanograms per ml) of purified IgE. As shown in the graph, the X-axis indicates the concentrations of the IgE in ng/ml; and the Y-axis indicates the OD450 derived from each of the concentrations. The line 100 connects the data points, while line 110 is a trend line corresponding to the equation in this particular embodiment of: Y=0.2909X−0.2527 Equation 1 With the IgE calibration graph, the amount of IgE for each sample was determined, and the subsequent data was input into FIG. 3 for comparative analysis.

[7] = immediate phase (two hours during the NAC)

With `CCOC(=O)N1CCC(=C2c3ccc(Cl)cc3CCc3cccnc32)CC1` [Claritin, loratadine] the “Nasal Symptom Scores versus placebo” value ([1]; delayed phase, at six hours and overall, Blend 450 mg per dose, Claritin 10 mg) was “significantly fewer”, the “Nasal Symptom Score versus placebo (FIG. 15)” value ([1]; delayed phase, at two hours) was “trends toward significantly fewer symptoms” and the “PRC score versus the Blend” value [1, 7] was “lower PRC score”. For the same compound, the “sneezes versus the Blend” value [1, 7] was “fewer sneezes”, the “Nasal Symptom Score versus the Blend” value ([1]; immediate phase (two hours during the NAC), Claritin 10 mg per dose) was “lower Nasal Symptom Score” and the “Nasal Symptom Score Areas Over the Curve versus placebo (FIG. 18)” value ([1]; total product effect over eight hours) was “significantly better than the placebo”. The “change of Prostaglandin D2 in nasal fluid after the NAC (FIG. 19)” value (Prostaglandin D2) was “significant rise”.
With `O=C(/C=C/c1ccc(O)c(O)c1)O[C@H](Cc1ccc(O)c(O)c1)C(=O)O` [Rosmarinic acid] the “Percent Control LTC4 Release (Table VI)” value [2] was 120%, the “Percent Control of PGD2 Release (Table VI)” value [3] was 94% and the “Percent Control of Histamine Release (Table VI)” value [4] was 9.3%.
`O=C1O[C@H]([C@@H](O)CO)C(O)=C1O` [Vitamin C] was tested, and the “decrease in IgE receptor expression (FIG. 5)” value ([5]; 200 micrograms per milliliter) was 15%, the “effect on IgE receptor expression, in words (FIG. 5)” value ([5]; varying concentrations) was “significant effect” and the “inhibition of IgE secretion, in words (FIG. 6)” value [6] was “inhibited IgE secretion”.
